Results from US20070254037A1 (priority 2004, published 2007).

Columns and labels:
[1] = test system: right axillar lymphnode (recurrence of melanoma); experiment: Example 11: slow release injection into melanoma axillar lymphnode; format: in vivo, human
meningioma = experiment: Example 16: stereotactic injection into meningioma; format: in vivo, human
[2] = test system: lymphnode in the left cervical area (tonsillar carcinoma); experiment: Example 13: rods implanted in cervical lymphnode; format: in vivo, human
Description: A patient presents with a 10 cm diameter lymphnode located in the left cervical area. […] The patient refuses any kind of prolonged therapy. They accept a tumour implantation of a slow release drug. Fourteen 7 cm long rods of lactide-capronolactone containing rotenone, are implanted. The total dose of rotenone delivered over 2 weeks by the rods is 60 mg. […] The patient accepts radiation therapy.

[3] = test system: metastasis in the 10th dorsal vertebra from a breast tumor; experiment: Example 14: intratumoural injection into vertebral metastasis; format: in vivo, human; settings: on the next day; 20 mg as SLN in 1 ml poly(orthoesther) paste
Description: A person presents with metastases originating from a breast tumor operated and irradiated 3 years before. […] The patient is young and one wants to keep radiotherapy for further recurrences. They benefit from an intratumoural injection of 1 ml of polymeric paste (poly(orthoesther)), containing 20 mg of Antimycin A formulated as SLN. The paste is deposited in the center of the metastasis under fluoroscopy control. The pain drops on the next day by ⅔. […] This allows to visualize the elution rate and the melting process of the polymer, and to better follow and understand the kinetics of the treatment.
At 3 weeks the polymer has nearly totally disappeared, and the patient is sent for the injection of a cement (methylmethacrylate) inside the vertebra, under fluoroscopy. The pain disappears totally and the patient is followed up locally, ready to be treated when new metastases appear.

[4] = test system: metastatic prostate cancer; experiment: Phase I clinical trial of Rhodamine 123 intra-venous infusions; format: in vivo, human; settings: for a 70 kg patient
Description: The Huntington Medical Research Institutes are addressing this issue in metastatic prostate cancer (Lawrence W. Jones, M. D. Huntington Memorial Hospital). Recently this institute published the results of a clinical trial where 33 patients with metastatic prostate cancer were treated with Rhodamine 123 intra-venous infusions.
Because inhibitors of oxidative phorphorylation are extremely toxic to a subject in the doses needed for efficacy via the systemic route, such inhibitors have been largely overlooked for effective treatment of conditions such as cancer. […] It is also known that the maximal tolerated dose of Rhodamine 123 delivered intra-venously in man is 95 mg/m^2. For a 70 kg patient, the maximum dose of systemically delivered rhodamine is about 150 mg. […] There was an accumulation of rhodamine in the prostate of the patients, but it was not sufficient to provoke a significant response.

[5] = test system: metastatic prostate cancer; settings: cited from earlier work
tumour = experiment: Rhodamine delivered directly in the tumour (slow release); format: in vivo; settings: 40 or 50 mg directly in the tumour
Description: By locally delivering oxidative phosphorylation inhibitors into proliferating cells in a slow release formulation, the delivery period is prolonged i.e. the inhibitors are not cleared by the liver, and the dose received by the tumour is effectively higher than using systemic delivery. Furthemore, the lethal dose can be greatly exceeded. […] Such a dose, delivered systemically, would require 100 g of rhodamine, more than 1000 times the lethal dose. Thus, a composition comprising an oxidative phorphosrylation inhibitor in a slow release formulation increases the effective dose to the tumour and permits greater than lethal dosing.

[6] = rodents; cited from earlier work
right breast tumor = experiment: Example 12: rods implanted in breast tumor; format: in vivo, human

O=C(O)CF [fluoroacetate]
remaining induration size ([1]; 6 months later, after additional 6 sessions of radiotherapy at 5 Gy): 1 cm | lymphnode size ([1]; initially 5 cm, 1 month after 4 mg fluoroacetate slow release): 3 cm | lesion finding on MRI (meningioma; MRI two months after 4 mg in poly(ortho)ester): partial necrosis | tumour necrosis on histological examination (meningioma; after surgical intervention): 80% | lesion size (meningioma; initially 3 cm, MRI two months after 4 mg in poly(ortho)ester): 2.5 cm

C=C(C)[C@H]1Cc2c(ccc3c2O[C@@H]2COc4cc(OC)c(OC)cc4[C@@H]2C3=O)O1 [rotenone]
mass size ([2]; initially 10 cm, 6 weeks after rods delivering 60 mg over 2 weeks): 5.5 cm | lymphnode outcome ([2]; new implantation with 30 mg plus radiation dose of 50 Gy): totally disappears

Antimycin A
drop of pain [3]: ⅔

rhodamine
maximum dose of systemically delivered rhodamine [4]: about 150 mg | effect on prostate tumours ([5]; systemic, at the maximum non-lethal dose): no useful effect | tumour outcome (tumour): tumour death

rhodamine 123
LD10 (the dose which kills 10% of animals) [6]: 20 mg/kg | tumour response ([5]; 33 patients with metastatic prostate cancer, intra-venous infusions): no significant tumour response | PSA change ([5]; 33 patients with metastatic prostate cancer, intra-venous infusions, in some cases): slight PSA reduction | maximal tolerated dose ([5]; delivered intra-venously in man): 95 mg/m^2

sodium arsenate
tumor diameter (right breast tumor; after second session, 3 rods, total dose 30 mg): 3 cm | tumor diameter (right breast tumor; initially 6 cm, 2 months after four rods with 10 mg each): 4 cm
